Data from BindingDB's records for doi:10.1021/jm0603668 (Merck Frosst Canada, 2007).
pIC50: −log10 of the molar value.

Test: Activity at human TP receptor in platelet rich plasma assessed as inhibition […]-induced platelet aggregation

SMILES | pIC50
CC(=O)c1cc(F)cc2c3c(n(Cc4ccc(Cl)cc4)c12)[C@@H](CC(=O)O)CC3 [[(3R)-4-(4-chlorobenzyl)-7-fluoro-5-acetyl-1,2,3,4-tetrahydrocyclopenta-[b]indol-3-yl]acetic acid] | 5.85
O=C(O)C[C@H]1CCc2c1n(Cc1ccc(Cl)cc1)c1c(Br)cc(F)cc21 [[(3R)-5-bromo-4-(4-chlorobenzyl)-7-fluoro-1,2,3,4-tetrahydrocyclopenta[b]indol-3-yl]acetic acid] | 7.10
